We go through 19 molecules from patent US4868303A, “Bis-dioxopiperazine derivatives” (Zenyaku Kogyo Kabushiki Kaisha, priority 1986, dated 1989).

Assay [1] deals with P388 lymphocytic leukemia. Description: Growth inhibition of tumor cells of P388 lymphocytic leukemia in vitro. The format is cell-based, mouse (CDF1). Conditions: Mus musculus, 48 hours at 37° C., read-out: 50% Inhibitory concentration of cell growth (IC50). As for the experimental part:
(I) Growth Inhibition of Tumor Cells of P388 Lymphocytic Leukemia in Vitro:
Tumor cells were collected aseptically with capillary tube from ascites in CDF1 female mice transplanted intraperitoneally with 1×10^6cells of P388 lymphocytic leukemia 5 days before. Cell suspension was prepared at 5×10^4 cells/0.5 ml in a RPMI1640 medium supplemented with 10% fetal calf serum, kanamycin (0.1 mg/ml) and 2-hydroxyethyldisulfide (0.01 mM). Each test sample was dissolved or suspended in the medium at a concentration of 1×10^-1 -1×10^-5 mM.
A test tube with Molton stopper loosely involving 0.5 ml each of the cell suspension and the sample suspension was kept for 48 hours at 37° C. in an incubator supplied with air containing 5% carbon dioxide. […] The cells harvested therefrom was counted by using of a Coulter Counter and the inhibition of cell growth was calculated by the following formula:
Growth Inhibition (%)=(1-T/C)×100
T: number of cells in the culture containing test sample
C: number of cells in the culture of control

Assay [2] concerns P388 lymphocytic leukemia. Nature of the assay: Increase in life span on P388 lymphocytic leukemia tumor-transplanted mouse. The format is in vivo, mouse (CDF1). To be noted: P388, ip, 24 h, intraperitoneal, day 1 and 5th day after transplantation, read-out: Rate of increase in life span (ILS); for ILS at 2.5 mg/kg: daily dose 2.5 mg/kg; for ILS at 2.2 mg/kg: daily dose 2.2 mg/kg; for ILS at 3 mg/kg: daily dose 3.0 mg/kg. The procedure:
(III) Increase in Life Span on P388 Lymphocytic Leukemia Tumor-transplantedMouse:
The treated group to which the test sample was administered consisted of seven mice, while the control group consisted of ten mice. Six weeks old male mice (CDF1, 25±2 g of body weight) were employed as host animals.
Tumor cells (1.0×10^6) of P388 lymphocytic leukemia were transplanted intraperitoneally into each mouse. The treatment was effected one day after the transplantation and on 5th day by administering prescribed dose of each test sample intraperitoneally to the mice.
Antitumor activity of the test sample was evaluated by the rate of increase in life span (ILS) which was calculated with the following formula.
T': median survival time of treated mice
C': median survival time of control mice

For the next assay, the system named is V79 cells. Description: Inhibitory effect on colony formation of V79 cells in vitro. The format is cell-based, Chinese hamster. Conditions: Cricetulus griseus, 96 hours with sample, read-out: 90% inhibitory concentration (IC90). The procedure: (II) Inhibitory effect on Colony Formation of V79 Cells in Vitro:
V79 cells established from Chinese hamster lung fibroblastoma were cultured routinely on plastic dishes (.phi. 60 mm) in RPMI 1640 medium supplemented with 10% fetal calf serum and kanamycin (0.1 mg/ml). Each confluent culture was then trypsinized by the addition of 1 ml of trypsin-EDTA solution (supplied by the firm GIBCO) for 5 minutes at 37° C. in an incubator supplied with humidified air containing 5% CO2.
Homogeneous suspension of V79 cells thus obtained was diluted to 100, 200 and 400 viable cells/ml with the medium, and 1 ml each of them was transferred to other plastic dishes (.phi. 60 mm) containing 1.85 ml of the medium, and diluted to 100, 200 and 400 viable cells/dish.
Each test sample was dissolved in DMSO at the concentration of 20 mM and diluted with the medium to the final concentration of 2×10^-3 -2×10^-10 mM.
Each test dish was kept for 24 hours at 37° C. in an incubator supplied with humidified air containing 5% CO2, and was further cultured for 96 hours after 150 μl of the sample solution was added thereto.
The cells were gently washed once with Mg- and Ca-free phosphate-buffered saline [PBS(-)] and fixed with 1 ml of 3.5% HCHO-PBS(-) solution for 2 hours, then stained with a crystal violet ethanol solution.
The 90% inhibitory concentration (IC90) was calculated by comparing the number of visible colonies on the sample dish with that on the control dish.

pIC50: −log10 of the molar value. Where a name gives a salt, the structure may show the parent alone.

Consider `CC(=O)OCN1C(=O)CN([C@@H](C)[C@@H](C)N2CC(=O)NC(=O)C2)CC1=O` (relative stereo) [Sample 9, erythro-2-(4-acetoxymethyl-3,5-dioxopiperazin-1-yl)-3-(3,5-dioxopiperazin-1-yl)butane], for which the pIC50 in assay [1] was 7.13.
A word on the ILS: it is the gain in survival time of treated over control animals, in per cent. As for `C[C@H]([C@H](C)N1CC(=O)N(COC(=O)Cc2ccccc2Cl)C(=O)C1)N1CC(=O)NC(=O)C1` (relative stereo) [Sample 10, erythro-2-[4-(2-chlorophenylacetoxymethyl)-3,5-dioxopiperazin-1-yl]-3-(3,5-dioxopiperazin-1-yl)butane], in assay [2], the ILS at 2.5 mg/kg came out at 162%. In addition, the pIC50 in assay [1] is 8.15. The IC90 with V79 cells worked out at 0.073 nM.
With `C[C@H]([C@H](C)N1CC(=O)N(COC(=O)COc2ccc(Cl)cc2Cl)C(=O)C1)N1CC(=O)NC(=O)C1` (relative stereo) [Sample 11, erythro-2-[4-(2,4-dichlorophenoxyacetoxymethyl)-3,5-dioxopiperazin-1-yl]-3-(3,5-dioxopiperazin-1-yl)butane], the ILS at 2.7 mg/kg in assay [2] (daily dose 2.7 mg/kg) was determined as 132%. Besides, the pIC50 in assay [1] is 7.11. The IC90 with V79 cells stood at 0.082 nM.
With `C[C@H]([C@H](C)N1CC(=O)N(COC(=O)c2ccccc2)C(=O)C1)N1CC(=O)NC(=O)C1` (relative stereo) [Sample 13, erythro-2-(4-benzoyloxymethyl-3,5-dioxopiperazin-1-yl)-3-(3,5-dioxopiperazin-1-yl)butane], the ILS at 2.2 mg/kg in assay [2] was found to be 118%. Also, in assay [1], the pIC50 is 7.42.
For the molecule `C[C@H]([C@H](C)N1CC(=O)N(COC(=O)OCc2ccc([N+](=O)[O-])cc2)C(=O)C1)N1CC(=O)NC(=O)C1` (relative stereo) [Sample 15, erythro-2-[4-(4-nitrobenzyloxycarbonyloxymethyl)-3,5-dioxopiperazin-1-yl]-3-(3,5-dioxopiperazin-1-yl)butane], in assay [2] (daily dose 2.6 mg/kg), the ILS at 2.6 mg/kg was 177%. In addition, the pIC50 in assay [1] was 6.62.
Take `C[C@H]([C@H](C)N1CC(=O)N(COC(=O)c2ccco2)C(=O)C1)N1CC(=O)NC(=O)C1` (relative stereo) [Sample 18, erythro-2-[4-(2-furoyloxymethyl)-3,5-dioxopiperazin-1-yl]-3-(3,5-dioxopiperazin-1-yl)butane]: the ILS at 2.2 mg/kg in assay [2] turned out to be 185%. The pIC50 in assay [1] was 7.38. In the assay with V79 cells, the IC90 stood at 0.1 nM.
As for `C[C@H]([C@H](C)N1CC(=O)N(COC(=O)OCc2ccccc2)C(=O)C1)N1CC(=O)NC(=O)C1` (relative stereo) [Sample 19, erythro-2-(4-benzyloxycarbonyloxymethyl-3,5-dioxopiperazin-1-yl)-3-(3,5-dioxopiperazin-1-yl)butane], the ILS at 2.4 mg/kg in assay [2] (daily dose 2.4 mg/kg) is 132%. Besides, in assay [1], the pIC50 is 7.96. Moreover, the IC90 in the assay on V79 cells was determined as 0.09 nM.
Take `CC(=O)OCN1C(=O)CN([C@H](C)[C@H](C)N2CC(=O)N(COC(C)=O)C(=O)C2)CC1=O` [Sample 1, meso-2,3-bis(4-acetoxymethyl-3,5-dioxopiperazin-1-yl)butane]: in assay [2] (daily dose 1.5 mg/kg), the ILS at 1.5 mg/kg is 152%. Also, in assay [1], the pIC50 was 6.52. Besides, the IC90 with V79 cells worked out at 0.089 nM.
Take `C[C@H]([C@H](C)N1CC(=O)N(COC(=O)Cc2ccccc2Cl)C(=O)C1)N1CC(=O)N(COC(=O)Cc2ccccc2Cl)C(=O)C1` [Sample 2, meso-2,3-bis[4-(2-chlorophenylacetoxymethyl)-3,5-dioxopiperazin-1-yl]butane]: the ILS at 3.4 mg/kg in assay [2] (daily dose 3.4 mg/kg) turned out to be 107%. Besides, the pIC50 in assay [1] is 8.07.
On to `C[C@H]([C@H](C)N1CC(=O)N(COC(=O)COc2ccc(Cl)cc2Cl)C(=O)C1)N1CC(=O)N(COC(=O)COc2ccc(Cl)cc2Cl)C(=O)C1` [Sample 3, meso-2,3-bis[4-(2,4-dichlorophenoxyacetoxymethyl)-3,5-dioxopiperazin-1-yl]butane], for which the pIC50 in assay [1] is 7.15.
The same measure, in the same setting: in the case of `CC(C(C)N1CC(=O)N(COC(=O)C=Cc2cccc(Cl)c2)C(=O)C1)N1CC(=O)N(COC(=O)C=Cc2cccc(Cl)c2)C(=O)C1` (stereo not drawn) [Sample 4, meso-2,3-bis[4-(3-chlorocinnamoyloxymethyl)-3,5-dioxopiperazin-1-yl]butane] it was 6.62; in that of `C[C@H]([C@H](C)N1CC(=O)N(COC(=O)[C@H](NC(=O)OC(C)(C)C)c2ccccc2)C(=O)C1)N1CC(=O)N(COC(=O)[C@H](NC(=O)OC(C)(C)C)c2ccccc2)C(=O)C1` [Sample 5, meso-2,3-bis[4-[(R)-2-N-tert-butoxycarbonylamino-2-phenylacetoxymethyl]-3,5-dioxopiperazin-1-yl]butane], 7.49.
For the molecule `C[C@H]([C@H](C)N1CC(=O)N(COC(=O)[C@H](N)c2ccccc2)C(=O)C1)N1CC(=O)N(COC(=O)[C@H](N)c2ccccc2)C(=O)C1` [Sample 6, meso-2,3-bis[4-[(R)-2-amino-2-phenylacetoxymethyl]-3,5-dioxopiperazin-1-yl]butane trifluoroacetate], the pIC50 in assay [1] is 7.28.
`CC(C)COC(=O)OCN1C(=O)CN([C@H](C)[C@H](C)N2CC(=O)N(COC(=O)OCC(C)C)C(=O)C2)CC1=O` [Sample 7, meso-2,3-bis(4-isobutoxycarbonyloxymethyl-3,5-dioxopiperazin-1-yl)butane]: in assay [2], the ILS at 3 mg/kg is 104%. The pIC50 in assay [1] was 7.08. Also, the IC90 in the assay on V79 cells was 0.0045 nM.
For `C[C@H]([C@H](C)N1CC(=O)N(COC(=O)OCc2ccc([N+](=O)[O-])cc2)C(=O)C1)N1CC(=O)N(COC(=O)OCc2ccc([N+](=O)[O-])cc2)C(=O)C1` [Sample 8, meso-2,3-bis[4-(4-nitrobenzyloxycarbonyloxymethyl)-3,5-dioxopiperazin-1-yl]butane], in assay [1], the pIC50 was 6.82.
For the molecule `CC(C(C)N1CC(=O)N(COC(=O)C=Cc2cccc(Cl)c2)C(=O)C1)N1CC(=O)NC(=O)C1` (stereo not drawn) [Sample 12, erythro-2-[4-(3-chlorocinnamoyloxymethyl)-3,5-dioxopiperazin-1-yl]-3-(3,5-dioxopiperazin-1-yl)butane], the ILS at 2.5 mg/kg in assay [2] was 90%. For the same molecule, the pIC50 in assay [1] was 7.96. For the same molecule, the IC90 in the assay with V79 cells stood at 0.098 nM.
`C[C@H]([C@H](C)N1CC(=O)N(COC(=O)c2ccccc2)C(=O)C1)N1CC(=O)N(COC(=O)c2ccccc2)C(=O)C1` [Sample 16, meso-2,3-bis(4-benzoyloxymethyl-3,5-dioxopiperazin-1-yl)butane]: the ILS at 3 mg/kg in assay [2] turned out to be 150%. The pIC50 in assay [1] was 6.60. The IC90 with V79 cells was determined as 0.098 nM.
Consider `C[C@H]([C@H](C)N1CC(=O)N(COC(=O)OCc2ccccc2)C(=O)C1)N1CC(=O)N(COC(=O)OCc2ccccc2)C(=O)C1` [Sample 17, meso-2,3-bis(4-benzyloxycarbonyloxymethyl-3,5-dioxopiperazin-1-yl)butane], for which the increase in lifespan (ILS) at 3.2 mg/kg in assay [2] (daily dose 3.2 mg/kg) worked out at 179%. In addition, in assay [1], the pIC50 is 7.25.
Take `C[C@H]([C@H](C)N1CC(=O)NC(=O)C1)N1CC(=O)NC(=O)C1` [Sample B, meso-2,3-bis(3,5-dioxopiperazin-1-yl)butane, reference compound]: the IC90 in the assay on V79 cells is 5.3 nM.
